This note sets out measurements from publication PMC7158045 (BMC Plant Biology, 2020).

SMILES strings stand for the structures. Where a name gives a salt, the structure may show the parent alone.

Holding throughout (assay): biochemical
One assay concerns the target T1, ZmDRIK1-R187-P492 (Zea mays, UniProt C0P4K9).
T1 construct: kinase domain, R187-P492
T1 sequence (C0P4K9 1-514): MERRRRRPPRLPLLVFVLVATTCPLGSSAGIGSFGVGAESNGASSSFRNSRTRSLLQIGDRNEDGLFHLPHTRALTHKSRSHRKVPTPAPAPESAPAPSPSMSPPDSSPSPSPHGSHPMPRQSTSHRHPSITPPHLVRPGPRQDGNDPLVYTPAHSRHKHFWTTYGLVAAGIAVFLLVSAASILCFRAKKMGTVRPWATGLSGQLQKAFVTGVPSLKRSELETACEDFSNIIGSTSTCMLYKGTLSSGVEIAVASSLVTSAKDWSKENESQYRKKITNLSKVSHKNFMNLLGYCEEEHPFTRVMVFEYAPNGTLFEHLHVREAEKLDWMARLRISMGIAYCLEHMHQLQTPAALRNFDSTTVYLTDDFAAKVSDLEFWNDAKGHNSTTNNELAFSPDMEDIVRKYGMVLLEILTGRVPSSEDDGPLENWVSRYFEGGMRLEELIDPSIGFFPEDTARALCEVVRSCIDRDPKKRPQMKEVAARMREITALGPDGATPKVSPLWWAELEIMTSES
The settings on record: read-out: dTm B, DSF, Boltzmann fit, 0.1% DMSO.

Another assay addresses T2, ZmDRIK1-K217-S514 (Zea mays, UniProt C0P4K9).
T2 construct: kinase domain, K217-S514
T2 sequence (C0P4K9 1-514): T1 sequence (C0P4K9 1-514)
The note with it: read-out: dTm B, sheet ZmDRIK1-K217-S514;; DSF, Boltzmann fit, 0.1% DMSO.

For assay [1], the target named is T3, ZmDRIK1 (DROUGHT RESPONSIVE INACTIVE KINASE 1), kinase domain (Zea mays, UniProt C0P4K9).
T3 construct: gene ZEAMMB73_Zm00001d028770; ZmDRIK1-KD R187-S514 (kinase domain)
T3 sequence (C0P4K9 187-514): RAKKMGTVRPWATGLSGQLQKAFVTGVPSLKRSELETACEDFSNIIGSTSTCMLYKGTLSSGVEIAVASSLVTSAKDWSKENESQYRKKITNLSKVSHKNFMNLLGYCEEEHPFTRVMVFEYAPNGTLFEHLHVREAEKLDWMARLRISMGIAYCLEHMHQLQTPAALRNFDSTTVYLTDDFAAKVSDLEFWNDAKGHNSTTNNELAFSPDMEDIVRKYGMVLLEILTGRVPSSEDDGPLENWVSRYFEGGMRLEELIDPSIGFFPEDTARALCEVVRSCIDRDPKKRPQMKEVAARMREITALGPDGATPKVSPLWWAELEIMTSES
The note with it: read-out: dTm B, sheet ZmDRIK1-R187-S514;; DSF, Boltzmann fit, 0.1% DMSO.

For a further assay, the target named is T4, ZmDRIK1-K217-P492 (Zea mays, UniProt C0P4K9).
T4 construct: kinase domain, K217-P492
T4 sequence (C0P4K9 1-514): T1 sequence (C0P4K9 1-514)
The note with it: read-out: dTm B, sheet ZmDRIK1-K217-P492;; DSF, Boltzmann fit, 0.1% DMSO.

As to `Cc1cc(C(C)Nc2ccccc2)c2nc(N3CCOCC3)cc(=O)n2c1` (stereo not shown) [TGX-221], the ΔTm at 10 µM was -0.136 °C at ZmDRIK1-R187-P492, -0.0845 °C at ZmDRIK1-K217-S514, -0.944 °C in assay [1] and -0.973 °C at ZmDRIK1-K217-P492.
For `Cc1cc(F)c(Nc2ncnc3cc(OCc4ccccc4)ccc23)cc1O` [ZM 323881 HCl], the ΔTm at 10 µM at ZmDRIK1-R187-P492 was -1.9 °C; at ZmDRIK1-K217-S514 it was -0.146 °C; in assay [1] it was -1.06 °C; on ZmDRIK1-K217-P492 it was -0.816 °C.
Turning to `Nc1ncnc2c1c(-c1cccc(OCc3ccccc3)c1)cn2[C@H]1C[C@@H](CN2CCC2)C1` [NVP-AEW541], the ΔTm at 10 µM was -0.332 °C at ZmDRIK1-R187-P492, -0.366 °C at ZmDRIK1-K217-S514, -0.841 °C in assay [1] and -1.08 °C at ZmDRIK1-K217-P492.
Taken in the same sequence, the figures for `COc1ccc(Cl)cc1NC(=O)Nc1cc(C)nc2ccccc12` [PQ 401] were -0.365 °C, -0.394 °C, -1.59 °C and -0.962 °C.
On the same counts, the results for `Cn1cc(-c2ccc3ncc(Cc4ccc5ncccc5c4)n3n2)cn1` [NVP-BVU972] are -0.283 °C, -0.37 °C, -0.84 °C and -0.593 °C.
On the same counts, the results for `COc1cccc(-c2cc(=O)c3ccccc3o2)c1N` [PD98059] are -0.0775 °C, -0.33 °C, -1.1 °C and -1.13 °C.
For `Cc1cc(O)c2c(c1)C(=O)c1cccc(O)c1C2=O` [Chrysophanic Acid], the ΔTm at 10 µM at ZmDRIK1-R187-P492 is -0.205 °C; at ZmDRIK1-K217-S514, -0.229 °C; in assay [1] it was -0.414 °C; at ZmDRIK1-K217-P492 it was -1.17 °C.
On the same counts, the results for `CS(=O)(=O)N1CCc2c(-c3cnc(N)nc3)nc(N3CCOCC3)nc21` [CH5132799] are -0.223 °C, -0.324 °C, -0.711 °C and -0.608 °C.
Turning to `NC1(Cc2ccc(Cl)cc2)CCN(c2ncnc3[nH]ccc23)CC1` [CCT128930], the ΔTm at 10 µM on ZmDRIK1-R187-P492 was -0.325 °C; on ZmDRIK1-K217-S514 it was -0.48 °C; in assay [1] it was -0.523 °C; on ZmDRIK1-K217-P492 it was -1.15 °C.
In the case of `C[C@H](Nc1ncnc2nc[nH]c12)c1cc2cccc(Cl)c2c(=O)n1-c1ccccc1` [IPI-145 (INK1197)], the ΔTm at 10 µM at ZmDRIK1-R187-P492 is -0.495 °C; on ZmDRIK1-K217-S514, -0.374 °C; in assay [1] it was -1.16 °C; on ZmDRIK1-K217-P492, -0.86 °C.
Regarding `Cn1cnc2c(F)c(Nc3ccc(Br)cc3Cl)c(C(=O)NOCCO)cc21` [Selumetinib (AZD6244)], the ΔTm at 10 µM is -0.268 °C on ZmDRIK1-R187-P492, -0.433 °C on ZmDRIK1-K217-S514, -0.69 °C in assay [1] and -1.37 °C at ZmDRIK1-K217-P492.
For `COc1ccc2cc(-c3nc(-c4ccc([S+](C)[O-])cc4)[nH]c3-c3ccncc3)ccc2c1` (stereo not shown) [Tie2 kinase inhibitor], the ΔTm at 10 µM is -0.238 °C on ZmDRIK1-R187-P492, -4.75 °C on ZmDRIK1-K217-S514, -0.713 °C in assay [1] and -1.05 °C at ZmDRIK1-K217-P492.
On the same counts, the results for `O=C(NCc1cccc(O)c1)Nc1nc(-c2ccncc2)cs1` [RKI-1447] are 0.716 °C, -0.42 °C, -0.456 °C and -0.48 °C.
Taken in the same sequence, the figures for `O=S(=O)(NCCNC/C=C/c1ccc(Br)cc1)c1cccc2cnccc12` [H 89 2HCl] were -0.178 °C, -0.188 °C, -0.703 °C and -0.68 °C.
On the same counts, the results for `COc1ccc2c(c1)c(C1=C(c3c[nH]c4ccccc34)C(=O)NC1=O)cn2CCCN(C)C` [Go 6983] are -0.26 °C, -0.364 °C, -0.633 °C and -1.22 °C.
With `CCCNC(=O)Nc1ccc(Oc2ncnc3cc(OC)c(OC)cc23)cc1Cl` [KRN 633], the ΔTm at 10 µM is -0.332 °C on ZmDRIK1-R187-P492, -0.102 °C on ZmDRIK1-K217-S514, -1.02 °C in assay [1] and -0.52 °C at ZmDRIK1-K217-P492.
